The results in this text go back to US20210290741A1, “COMPOSITIONS FOR THE TREATMENT OF GRAFT VERSUS HOST DISEASE” (DA VOLTERRA, priority 2018, published 2021).

The test deals with acute Graft vs Host disease. Nature of the test: Acute graft vs host disease after bone marrow + T cell transplant in lethally irradiated mice, survival (Example 5). It counts as in vivo, mice (129, female). Particulars: 129 mice, C57BL/6 bone marrow + T cells at day 0, imipenem 100 mg/kg s.c. 3 times a week day 10-21, activated charcoal 14.4 mg/g in food day 9-22.

Experimental: 30 mice (129, female) were lethally irradiated and transplanted with 5 million C57BL/6 T-cell depleted bone marrow cells as well as 1 million C57BL/6 splenic T cells at day 0.
The mice were then split in 3 groups. In group A, they received no further treatment. In group B, an imipenem treatment was initiated at day 10. It consisted of an administration of imipenem (100 mg/kg), 3 times a week by subcutaneous route. The imipenem treatment was stopped at day 21. In group C, the same imipenem treatment as group B was performed. In addition, group C mice received activated charcoal (14.4 mg/g) mixed with their food in a hydrogel every day from day 9 to day 22.
The clinical status of the mice was monitored every day from day 1 to day 21.

As to `C[C@@H](O)[C@H]1C(=O)N2C(C(=O)O)=C(SCCN=CN)C[C@H]12` [imipenem], the “Survival at day 21” value turned out to be 60%.
